Molecular target: BoNT/A LC (BoNTA-LC 1-425) (Clostridium botulinum, UniProt P0DPI0)
Type: biochemical

Sequence of BoNT/A LC (BoNTA-LC 1-425) (P0DPI0 1-425 limits assumed): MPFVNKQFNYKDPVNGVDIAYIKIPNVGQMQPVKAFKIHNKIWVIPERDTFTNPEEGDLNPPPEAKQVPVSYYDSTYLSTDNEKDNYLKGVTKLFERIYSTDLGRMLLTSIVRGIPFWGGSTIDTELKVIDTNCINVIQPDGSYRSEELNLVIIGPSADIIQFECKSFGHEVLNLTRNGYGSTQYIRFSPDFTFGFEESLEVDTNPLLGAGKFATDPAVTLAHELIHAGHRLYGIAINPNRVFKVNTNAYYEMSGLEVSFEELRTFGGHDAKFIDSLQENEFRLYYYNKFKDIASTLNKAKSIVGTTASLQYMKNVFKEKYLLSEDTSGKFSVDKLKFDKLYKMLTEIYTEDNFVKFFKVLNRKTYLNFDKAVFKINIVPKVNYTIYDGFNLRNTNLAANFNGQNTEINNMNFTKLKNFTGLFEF

| Compound | inhibitory activity |
| --- | --- |
| CC(=O)Nc1cc(-c2ccc(Cl)cc2)n[nH]1 [Compound 7, N-(3-(4-Chlorophenyl)-1H-pyrazol-5-yl)acetamide] | abolishes all activity |
| O=C(CO)Nc1cc(-c2ccc(Cl)cc2)n[nH]1 [Compound 6, N-(3-(4-Chlorophenyl)-1H-pyrazol-5-yl)-2-hydroxyacetamide] | abolishes all activity |

Reference: paper PMC2677997 (Bioorganic & medicinal chemistry, 2009)
